# According to patent US20250135026A1, “Antibody Drug Conjugates” (BeiGene Switzerland GmbH, priority 2021, published 2025):
# Like-named read-outs stand apart in the source and are kept apart here.
# Tests used:
# Calu-6 = assay: Compounds cellular killing (Cell Titer-Glo, 6 days, 2D); format: cell-based; conditions: for EC50 / Emax: Homo sapiens; for Emax: read-out: Emax
# Protocol: (§1) The cell line was grown in a humidified 5% CO2 atmosphere at 37° C., and was regularly tested for the presence of mycoplasma with MycoAlert™ PLUS Mycoplasma Detection Kit (Lonza, LT07-710).
# (§2) Incubation at 37° C., 5% CO2, overnight.
# (§3) Adding the fresh growth-medium containing the varying concentrations of compounds, 50 ul/well.
# (§4) Incubation at 37° C., 5% CO2, 6 days.
# (§5) The cell viability detected by Cell Titer-Glo (Promega, G7573). Add 70 µL/well of CellTiter-Glo® Reagent in each well.
# (§6) Allow the plates to incubate at room temperature for 10 minutes to stabilize luminescent signal.
# (§7) Analyze with Microplate Reader.
# in vitro = conditions: PAMPA
# A375 = assay: Compounds cellular killing (Cell Titer-Glo, 6 days, 2D); format: cell-based, human; conditions: for cell-killing activity compared with Dxd: A375; for EC50 / Emax: Homo sapiens; for Emax: read-out: Emax
# Protocol: as §1, §2, §3, §4, §5, §6, §7
# HCC1569 = assay: Payload cellular killing, 2D; format: cell-based; conditions: Homo sapiens, HCC1569, 2D (HER3 +++); for Emax: read-out: Emax
# MDA-MB-453 = assay: Payload cellular killing, 2D; format: cell-based, human; conditions: Homo sapiens, MDA-MB-453, 2D (HER3 +++); for Emax: read-out: Emax
# Protocol: as §1
# PAMPA = conditions: free payload
# [1] = Calu-6, Table 27, free payload, Calu-6, 2D (HER3 neg.)
# [2] = Calu-6, […], Table 29, payload, Clau6, 6d, 2D (Her3 neg)
# [3] = Calu-6, Table 29, payload, Clau6, 6d, 2D (Her3 neg)
# [4] = A-375, Table 27, free payload, A375, 2D (Her3 ++)
# [5] = A-375, […], Table 29, payload, A375, 6d, 2D (Her3++)
# [6] = A-375, Table 29, payload, A375, 6d, 2D (Her3++)
# [7] = Calu-6, Table 28, payload, Calu-6, 2D (HER3 neg.)
# [8] = A-375, Table 28, payload, A375, 2D (Her3 ++)
SMILES,cell-killing activity compared with Dxd (Calu-6; Calu-6),"EC50 (Calu-6; Calu-6, Table 21, Calu-6)",EC50 (Calu-6; [1]),EC50 (Calu-6; [2]),Emax (Calu-6; [3]),"Emax (Calu-6; Table 21, Calu-6)",recovery (in vitro),PAMPA -Log Pe,cell-killing activity compared with Dxd (A375),EC50 (A375; [4]),EC50 (A375; [5]),"EC50 (A375; A-375, Table 21, A375)","Emax (A375; A-375, Table 21, A375)",Emax (A375; [6]),"Emax (HCC1569; HCC1569, Table 28, payload)","Emax (MDA-MB-453; MDA-MB-453, Table 28, payload)",Emax (Calu-6; [1]),EC50 (Calu-6; [7]),Emax (Calu-6; [7]),PAMPA -Log Pe (PAMPA),further results
CC[C@@]1(O)C(=O)OCc2c1cc1n(c2=O)Cc2c-1nc1cc(F)c(C)c3c1c2[C@@H](NC(=O)CCO)CC3 [Compound 72],less potent than Dxd,2 nM,2 nM,2 nM,98.3%,98.3%,48.1%,6.02,less potent than Dxd,4.4 nM,4.4 nM,4.4 nM,99.9%,99.9%,,,,,,,
"CC[C@@]1(O)C(=O)OCc2c1cc1n(c2=O)Cc2c-1nc1cc(F)c(C)c3c1c2[C@@H](NC(=O)C(C)(C)CO)CC3 [Compound 66, N-((1S,9S)-9-ethyl-5-fluoro-9-hydroxy-4-methyl-10,13-dioxo-2,3,9,10,13,15-hexahydro-1H,12H-benzo[de]pyrano[3′,4′:6,7]indolizino[1,2-b]quinolin-1-yl)-3-hydroxy-2,2-dimethylpropanamide]",stronger cell-killing activity than Dxd,0.3 nM,0.3 nM,0.3 nM,97.3%,97.3%,79.7%,5.89,stronger cell-killing activity than Dxd,1.1 nM,1.1 nM,1.1 nM,99.9%,99.9%,,,,,,,
"CC[C@@]1(O)C(=O)OCc2c1cc1n(c2=O)Cc2c-1nc1cc(F)c(C)c3c1c2[C@@H](N)CC3 [Exatecan, reference compound]",,,0.3 nM,,,,56%,,,0.7 nM,,,,,94.5%,99.4%,96.2%,0.2 nM,96.4%,5.75,"EC50 (HCC1569; Table 28, payload): 0.5 nM; EC50 (MDA-MB-453; Table 28, payload): 0.5 nM; Emax (A375; [4]): 99.9%; EC50 (A375; [8]): 0.9 nM"
"CC[C@@]1(O)C(=O)OCc2c1cc1n(c2=O)Cc2c-1nc1cc(F)c(C)c3c1c2[C@@H](NC(=O)CO)CC3 [DXd, reference compound]",,,,,,,95.2%,,,2.8 nM,2.7 nM,2.8 nM,100%,100%,93.4%,98.7%,98%,1.2 nM,98.6%,5.89,"EC50 (HCC1569; HCC1569, Table 28, payload): 2.9 nM; EC50 (MDA-MB-453; MDA-MB-453, Table 28, payload): 1.9 nM; Emax (Calu-6; Calu-6, Table 21, Calu-6): 98%; Emax (Calu-6; [2]): 98.8%; EC50 (A375; [8]): 3.2 nM"
